“Also recorded” adds a separate entry of the source.
Legend:
[1] = test system: rats; assay: Toxicology: organs sectioned and examined after dosing; type: in vivo; details: two animals examined, findings per animal
Protocol: In at least two of the animals in each group, the pancreas, right kidney and part of the liver, heart, spleen, and lung were removed and evaluated for toxic effects.
The toxicology of animals receiving some of the compounds of the present invention IP and/or oral was examined. At the time of sacrifice samples of liver, pancreas, heart, lung, spleen and kidney were removed, visually inspected, and immersion fixed in Bouin's solution for a minimum of 48 hours. All organs were then sectioned and examined for evidence of necrosis, inflammation, hemorrhage, and possible tumors. The major veins in each tissue were also examined for distention, especially in the liver and pancreas, and any other abnormalities are compared to known histopathological states. In addition to the above, the heart was examined for evidence of fibrosis in the muscular walls, and to compare the thickness of the ventricular walls. The pancreas was examined mainly for calcium deposits, while the lung was checked for signs of any exudates or hemorrhage, especially in the alveolar spaces. Finally, the kidney was examined mainly for microscopic hemorrhages, tubular necrosis or alterations in the glomeruli in the cortex.
In this example, the effects of RC-MC-30 were compared with those of lonidamine in sexually mature rats. As discussed above, each of the rats (8 total) received a single injection and were sacrificed five days after injection and examined.

[2] = test system: Male Long Evans rats; assay: In vivo antispermatogenic testing in Long Evans rats; details: for Mortality (25 mg/kg) / Response 25 mg/kg: 25 mg/kg single i.p. injection; for Response 25 mg/kg / Response 200 mg/kg: animals responding out of animals surviving, five days following injection; for Mortality (200 mg/kg) / Response 200 mg/kg: 200 mg/kg single i.p. injection
[3] = test system: Salmonella Typhimurium TA 100; assay: Ames test for mutagenicity (plate assay, colony count); details: 48 hours at 37° C.; for Ames test (+)S9 0.1 mg/pl. / Ames test (+)S9 1 mg/pl. / Ames test (+)S9 10 mg/pl.: (+)S9 mix; for Ames test (−)S9 0.1 mg/pl. / Ames test (−)S9 1 mg/pl. / Ames test (−)S9 10 mg/pl.: (−)S9 mix

SMILES	Toxicology: liver, lung, pancreas, spleen, heart and kidney (histology) ([1]; 25 mg/kg)	Toxicology: liver, lung, pancreas, spleen, heart and kidney (histology) ([1]; 200 mg/kg)	Mortality (25 mg/kg) [2]	Response 25 mg/kg [2]	Mortality (200 mg/kg) [2]	Response 200 mg/kg [2]	Ames test (+)S9 0.1 mg/pl. [3]	Ames test (+)S9 1 mg/pl. [3]	Ames test (+)S9 10 mg/pl. [3]	Ames test (−)S9 0.1 mg/pl. [3]	Ames test (−)S9 1 mg/pl. [3]	Ames test (−)S9 10 mg/pl. [3]	Toxicology: liver, lung, pancreas, spleen, heart and kidney (histology) ([1]; 25 mg/kg, listed as JSW-1-158)	Toxicology: liver, lung, pancreas, spleen, heart and kidney (histology) ([1]; 200 mg/kg, listed as JSW-1-158)	Toxicology: liver, lung, pancreas, spleen, heart and kidney (histology) ([1]; 25 mg/kg, listed as JSW-1-160)	Toxicology: liver, lung, pancreas, spleen, heart and kidney (histology) ([1]; 200 mg/kg, listed as JSW-1-160)	Toxicology: liver, lung, pancreas, spleen, heart and kidney (histology) ([1]; 200 mg/kg, listed as JSW-1-162)
CCCOC(=O)c1nn(Cc2ccc(Cl)cc2Cl)c2ccccc12 [RC-MC-158, 1-[(2,4-dichlorobenzyl)-1H-indazole]-3-carboxylic acid propyl ester]	liver, lung, pancreas, spleen, heart and kidney all appeared within normal limits; also recorded: The lung did have small scattered hemorrhagic areas, mainly around the alveoli and terminal bronchioles	The lung had multiple, large hemorrhagic areas, mainly in the alveolar regions with some hemosiderin deposits; also recorded: The lung contained multiple large hemorrhagic areas, mainly in the alveoli; also recorded: The liver contained small, scattered necrotic areas, generally around the portal veins	0/5	2/5	0/5	5/5	Mar-	Pass	Pass	Pass	Pass	Pass	–	–	–	–	–
COC(=O)c1nn(Cc2ccc(Cl)cc2Cl)c2cc(F)ccc12 [JWS-1-158, 1-(2,4-dichlorobenzyl)-6-fluoro-1H-indazole-3-carboxylic acid methyl ester]	–	–	0/5	4/5	0/5	5/5	Pass	Pass	Pass	Pass	Pass	Pass	liver, lung, pancreas, spleen, heart and kidney all appeared within normal limits; also recorded: The lung had thickening of the alveolar and bronchiole walls, and scattered areas of moderate sized hemorrhaging covering several adjacent alveoli	The pancreas had areas of lymphocytic infiltrates extending from the periphery inwards between the acinar cells; also recorded: liver, lung, pancreas, spleen, heart and kidney all appeared within normal limits	–	–	–
O=C(O)/C=C/c1nn(Cc2ccc(Cl)cc2Cl)c2cc(F)ccc12 [JWS-1-170, 3-[1-(2,4-dichlorobenzyl)-6-fluoro-1H-indazol-3-yl]-acrylic acid]	liver, lung, pancreas, spleen, heart and kidney that appeared within normal limits	liver, lung, pancreas, spleen, heart and kidney all appeared within normal limits; also recorded: The liver did have moderate patches (5-10 cells in diameter) of necrosis mainly in the periportal areas	0/5	3/5	0/5	3/3	Pass	Pass	Pass	Pass	Pass	Pass	–	–	–	–	–
CCOC(=O)c1nn(Cc2ccc(Cl)cc2Cl)c2ccccc12 [RC-MC-156, 1-[(2,4-dichlorobenzyl)-1H-indazole]-3-carboxylic acid ethyl ester]	The lung did have scattered small, hemorrhagic patches, mainly in the alveolar and terminal bronchiole regions; also recorded: The lung showed widespread hemorrhagic regions throughout the alveoli and terminal bronchioles with small hemosiderin deposits around a few smaller bronchioles	liver, lung, pancreas, spleen, heart and kidney all appeared within normal limits; also recorded: The lung had small, scattered areas of hemorrhage mainly around the alveoli and small bronchioles; also recorded: The liver had small (4-5 cells in diameter) patches of necrosis scattered throughout the parenchyma	0/5	2/5	0/5	4/5	Pass	Pass	Pass	Pass	Pass	Pass	–	–	–	–	–
NNC(=O)c1nn(Cc2ccc(Cl)cc2Cl)c2cc(F)ccc12 [JWS-1-160, 1-(2,4-dichlorobenzyl)-6-fluoro-1H-indazole-3-carboxylic acid hydrazide]	–	–	0/5	3/5	2/5	3/3	Pass	Pass	Pass	Pass	Pass	Pass	–	–	The kidney does have scattered, small patches of tubular necrosis in the inner cortex; also recorded: The liver had several distended veins, but no other abnormalities were noted; also recorded: liver, lung, pancreas, spleen, heart and kidney all appeared within normal limits	The kidney did have scattered, small patches of tubular necrosis in the inner cortex; also recorded: liver, lung, pancreas, spleen, heart and kidney all appeared within normal limits	–
COc1ccc2c(n1)c(C(=O)O)nn2Cc1ccc(Cl)cc1Cl [JWS-1-144, 1-(2,4-dichlorobenzyl)-5-methoxy-1H-pyrazolo[4,3-b]pyridine-3-carboxylic acid]	liver, lung, pancreas, spleen, heart and kidney that appeared within normal limits	–	0/5	0/5	–	–	Pass	Pass	Pass	Pass	Pass	Pass	–	–	–	–	–
O=C(O)c1nn(Cc2ccc(Cl)cc2Cl)c2cc(F)ccc12 [JWS-1-162, 1-(2,4-dichlorobenzyl)-6-fluoro-1H-indazole-3-carboxylic acid]	liver, lung, pancreas, spleen, heart and kidney all appeared within normal limits	–	–	–	–	–	Pass	Pass	Pass	Pass	Pass	Pass	–	–	–	–	The lung had scattered hemorrhagic patches surrounding many of the small bronchioles; also recorded: The lung had moderate regions showing thickening of the alveolar walls, with a clear exudates slightly stained by eosin filling the alveoli
NNC(=O)c1nn(Cc2ccc(Cl)cc2Cl)c2ncccc12 [RC-MC-60, 1-(2,4-dichlorobenzyl)-1H-pyrazolo[3,4-b]pyridine-3-carboxylic acid hydrazide]	–	–	0/5	0/5	0/5	0/5	Pass	Pass	Pass	Pass	Pass	Pass	–	–	–	–	–
COC(=O)c1nn(Cc2ccc(F)cc2F)c2cc(Cl)ccc12 [JWS-1-280, 1-(2,4-difluorobenzyl)-6-chloro-1H-indazole-3-carboxylic acid methyl ester]	–	–	0/5	0/5	0/5	0/5	Pass	Pass	Pass	Pass	Pass	Pass	–	–	–	–	–
O=C(O)c1nn(Cc2ccc(F)cc2F)c2cc(C(F)(F)F)ccc12 [JWS-1-276, 1-(2,4-difluorobenzyl)-6-trifluoromethyl-1H-indazole-3-carboxylic acid]	–	–	0/5	0/5	0/5	0/5	Pass	Pass	Pass	Pass	Pass	Pass	–	–	–	–	–

Source: US8362031B2, “Lonidamine analogues and treatment of polycystic kidney disease” (University of Kansas, priority 2004, dated 2013)
